From patent US5980913A, “Peptides having immunomodulatory activity” (Biochem Pharma, Inc., priority 1994, dated 1999) come the findings set out here.

One assay relates to P815 target cells. In words: Cytotoxic T lymphocytes (CTL) assay, 51Cr release, after 5 days mixed culture with drug. It counts as cell-based, C57BL/6 mice. The source says:
(§1) 1. Cytotoxic T Lymphocytes (CTL) Mixed Lymphocyte Reaction (MLR) and Mitogenic Response Assays
(§2) The protocols used are described in Hudson L., Haay F., Pratical immunology, 3rd edition, Blackwell, Scientific publications, Oxford 1989, p. 158-162, and p.447.
(§3) Lymphocytes were isolated from C57BL/6 mice and DBA/2 mice in accordance to techniques well known in the art. Cell concentration was adjusted to 10×10^6 cell/ml for each assay. The cells isolated from DBA/2 mice were irradiated with 3000 Rads.
(§4) In a 6 well plate, each well was set up with:
(§5) The cells were incubated for five days at 37° C. in 5% CO2, after which CTL and MLR assays were performed.
a) Cytotoxic T Lymphocytes (CTL)
P815 target cells were labelled with Cr^51 (0.1 mCi). After labelling, the cells were washed three times and resuspended to a concentration of 5×10^4 cells/ml in media. p T cells were then counted and diluted to obtain a concentration of 2.5×10^6 cells/ml, and then further diluted to obtain the following effector:target ratios:
100 μl of target cells+100 μl of CTLs were incubated for 4 hours. In parallel wells, 100 μl of target cells+100 μl of media were incubated for spntaneous release. After incubation, cells were centrifuged and 100 μl of supernatant was then counted using a gamma counter.
Results are expressed as % specific ^51 Cr release= [formula] where ER=experimental release, SR=spontaneous releaase, and
0 represents less than 20%, + represents 20-40%, ++ represents 40-60%, +++ represent 60-80%, and ++++ represents 80% and over.

The test system of assay [1] is C57BL/6 lymphocytes with irradiated DBA/2 cells. In words: Mixed lymphocyte reaction (MLR), 3H thymidine uptake. The assay is classed as cell-based, mice.
Description: as §1, §2, §3, §4, §5
b) Mixed Lymphocyte Reaction (MLR)
Mixed lymphocyte reaction is an in vitro counterpart of the allograft rejection. Briefly, lymphocyte activation (mitotic response) is obtained when cells from two inbred strains or from two outbred individuals of any species are mixed in in vitro culture. To have a unidirectional response, the proliferation of either cell type may be blocked with X-ray irradiation or mitomycin C treatment. After 4 days incubation, ^3 H thymidine uptake and cytotoxicity assays (CTL) were performed. The cells were then resuspended and 100 μl of cell suspension was deposited in each well of a 96 well plate. 1 μCi of tritiated thymidine was added for 6 hours. After incubation, the cells were then harvested and counted using a Microbeta counter.

In the next assay the test system is T cells. Kind of assay: Activation of T cells by mitogenic proliferation (ConA, PHA). It counts as cell-based, C57BL/6 mice. An excerpt: (§6) c) Activation of T or B cells by Mitogenic Proliferation
(§7) A mitogenic lectin (mitogen) is a glycoprotein which binds and cross-links specific cells surface carbohydrate determinants, and will polyclonally stimulate lymphoid cells. Lymphocyte activation by either antigens or mitogens results in intracellular changes and the subsequent development into a lymphoblast. Mitogenic stimulation of lymphocytes in vitro is believed to mimic the series of events which occur in vivo following their stimulation by specific antigens. PHA and ConA; PWM and LPS mitogens can be used as a measurement of T cell and B cell activity, respectively. Briefly, the spleen mononuclear leukocytes from C57BL/6 mice are incubated in the presence or absence of mitogens with or without candidate drugs. After 72 hours or 5 days, ^3 H-thymidine incorporation is recorded as an indication of cell proliferation.
(§8) Lymphocytes were isolated from mice spleen or human blood in accordance to methods well known in the art. 100 μl of cell suspension of 2×10^6 cells/ml was added per well (2x10^5 cells/well) and incubated in the presence of lectin at the following concentrations:
PHA=0.01% to 0.001% final concentration
(§9) Cells were incubated for 3 days with PHA or ConA, or 5 days with PWM or LPS. 1 μCi of tritiated thymidine was added to each well for the last 6 hours (or 0.5 μCi for 18 hrs). The cells were harvested in a cell Harvester (Tortech®) and counted in a Beta counter.

Another assay relates to B cells. In words: Activation of B cells by mitogenic proliferation (LPS, PWM). It counts as cell-based, C57BL/6 mice.
Description: as §6, §7, §8
PWM=0.2 to 0.02% final concentration
as §9

[2] abbreviates: concentration not given, 0 not defined.

Where a SMILES comes first, the peptide text is derived from it. [ ]: non-standard residue; d: D form.

With `NCCCC[C@H](N)C(=O)N[C@@H](CC(N)=O)C(=O)NCC(=O)N[C@@H](Cc1ccc(O)cc1)C(=O)O` [PEPTIDE #2, H-Lys-Asn-Gly-Tyr-OH] (H-KNGY-OH), in the assay with P815 target cells (10^-9 M), the “CTL, % augmentation compared to IL-2 (IL-2 is 100%)” value (“CTL, % augmentation” below) is “++++ (++++ represents 80% and over)”. The MLR in assay [1] (10^-9 M) is listed as 1.8 ×. Moreover, the “Activation of T Cells, ConA” value in the assay with T cells (10^-12 M - 10^-10 M) turned out to be 1.3 ×. In the assay with T cells (setting [2]), the “Activation of T Cells, PHA” value worked out at 0. In addition, the “stimulation of T cells in vitro (in words)” value in the assay on T cells (summary of Table 1) was “stimulates T cells to a moderate extent”. In the assay with B cells (10^-8 - 10^-5 M), the “Activation of B Cells, LPS” value is listed as 1.8 - 3.5 × and the “Activation of B Cells, PWM” value was 1.4 - 4.5 ×. In the assay on B cells (summary of Table 1), the “stimulation of B cells in vitro (in words)” value is listed as “stimulates B cells”.
For `NCCCC[C@H](N)C(=O)N[C@@H](CC(N)=O)C(=O)N1CCC[C@@H]1C(=O)N[C@@H](Cc1ccc(O)cc1)C(=O)O` [PEPTIDE #3, H-Lys-Asn-(D-Pro)-Tyr-OH] (H-KN[dP]Y-OH), the “CTL, % augmentation” value in the assay with P815 target cells (10^-9 M) is listed as “++ (++ represents 40-60%)”. The “stimulation of CTL in vitro (in words)” value with P815 target cells (summary of Table 1) was “stimulate CTL”. Moreover, the MLR in assay [1] (setting [2]) is recorded as 0. Also, in the assay with T cells (setting [2]), the “Activation of T Cells, ConA” value was found to be 0 and the “Activation of T Cells, PHA” value worked out at 0. In the assay on B cells (setting [2]), the “Activation of B Cells, LPS” value is 0 and the “Activation of B Cells, PWM” value is on record as 0.
Consider `NCCCC[C@H](N)C(=O)N[C@@H](CC(N)=O)C(=O)N1CCC[C@H]1C(=O)N[C@@H](Cc1ccccc1)C(=O)O` [PEPTIDE #4, H-Lys-Asn-Pro-Phe-OH] (H-KNPF-OH), for which, in the assay on P815 target cells (concentration not given), the “CTL, % augmentation” value is given as 0 (0 represents less than 20%). Besides, the MLR in assay [1] (setting [2]) was 0. In the assay with T cells (setting [2]), the “Activation of T Cells, ConA” value stood at 0 and the “Activation of T Cells, PHA” value came out at 0. Further, in the assay with B cells (setting [2]), the “Activation of B Cells, LPS” value came to 0 and the “Activation of B Cells, PWM” value is reported as 0.
As for `NCCCC[C@H](N)C(=O)N[C@@H](CCC(N)=O)C(=O)N1CCC[C@H]1C(=O)N[C@@H](Cc1ccc(O)cc1)C(=O)O` [PEPTIDE #6, H-Lys-Gln-Pro-Tyr-OH] (H-KQPY-OH), in the assay with P815 target cells (concentration not given), the “CTL, % augmentation” value is on record as 0 (0 represents less than 20%). This molecule also had an MLR in assay [1] (setting [2]) of 0. Moreover, in the assay with T cells (setting [2]), the “Activation of T Cells, ConA” value was found to be 0 and the “Activation of T Cells, PHA” value came out at 0. For the same molecule, in the assay with B cells (setting [2]), the “Activation of B Cells, LPS” value is listed as 0 and the “Activation of B Cells, PWM” value is on record as 0.
Take `NCC(=O)N[C@@H](CC(N)=O)C(=O)N1CCC[C@H]1C(=O)N[C@@H](Cc1ccc(O)cc1)C(=O)O` [PEPTIDE #8, H-Gly-Asn-Pro-Tyr-OH] (H-GNPY-OH): in the assay on T cells (setting [2]), the “Activation of T Cells, ConA” value is recorded as 0 and the “Activation of T Cells, PHA” value was determined as 0. In addition, in the assay on B cells (setting [2]), the “Activation of B Cells, LPS” value is listed as 0 and the “Activation of B Cells, PWM” value stood at 0.
